These compounds were tested against T1, human mGluR5d (Homo sapiens, UniProt P41594) (assay: IP3 assay (phosphatidylinositol turnover, functional mGluR5 antagonism)). Settings: GHEK cells stably expressing human mGluR5d; glutamate (80 μM) or DHPG (30 μM) as agonist.
T1 construct: expressed in transfected cells
Format: cell-based
Text: Biological Evaluation Functional Assessment of mGluR5 Antagonism in Cell Lines Expressing mGluR5D
The properties of the compounds of the invention can be analyzed using standard assays for pharmacological activity. Examples of glutamate receptor assays are well known in the art as described in for example Aramori et al., Neuron 8:757 (1992), Tanabe et al., Neuron 8:169 (1992), Miller et al., J. Neuroscience 15: 6103 (1995), Balazs, et al., J. Neurochemistry 69:151 (1997). The methodology described in these publications is incorporated herein by reference. Conveniently, the compounds of the invention can be studied by means of an assay (FLIPR) that measures the mobilization of intracellular calcium, [Ca^2+]i in cells expressing mGluR5 or another assay (IP3) that measures inositol phosphate turnover.
An additional functional assay for mGluR5d is described in WO97/05252 and is based on phosphatidylinositol turnover. Receptor activation stimulates phospholipase C activity and leads to increased formation of inositol 1,4,5,triphosphate (IP3).
GHEK stably expressing the human mGluR5d are seeded onto 24 well poly-L-lysine coated plates at 40×10^4 cells/well in media containing 1 μCi/well [3H] myo-inositol. Cells were incubated overnight (16 h), then washed three times and incubated for 1 h at 37° C. in HEPES buffered saline (146 mM NaCl, 4.2 mM KCl, 0.5 mM MgCl2, 0.1% glucose, 20 mM HEPES, pH 7.4) supplemented with 1 unit/ml glutamate pyruvate transaminase and 2 mM pyruvate. Cells are washed once in HEPES buffered saline and pre-incubated for 10 min in HEPES buffered saline containing 10 mM LiCl. Compounds are incubated in duplicate at 37° C. for 15 min, then either glutamate (80 μM) or DHPG (30 μM) is added and incubated for an additional 30 min. The reaction is terminated by the addition of 0.5 ml perchloric acid (5%) on ice, with incubation at 4° C. for at least 30 min. Samples are collected in 15 ml polyproplylene tubes and inositol phosphates are separated using ion-exchange resin (Dowex AG1-X8 formate form, 200-400 mesh, BIORAD) columns. Inositol phosphate separation was done by first eluting glycero phosphatidyl inositol with 8 ml 30 mM ammonium formate. Next, total inositol phosphates is eluted with 8 ml 700 mM ammonium formate/100 mM formic acid and collected in scintillation vials. This eluate is then mixed with 8 ml of scintillant and [3H] inositol incorporation is determined by scintillation counting. The dpm counts from the duplicate samples are plotted and IC50 determinations are generated using a linear least squares fitting program.

T1 sequence (P41594 21-942 isoform P41594-3 limits assumed): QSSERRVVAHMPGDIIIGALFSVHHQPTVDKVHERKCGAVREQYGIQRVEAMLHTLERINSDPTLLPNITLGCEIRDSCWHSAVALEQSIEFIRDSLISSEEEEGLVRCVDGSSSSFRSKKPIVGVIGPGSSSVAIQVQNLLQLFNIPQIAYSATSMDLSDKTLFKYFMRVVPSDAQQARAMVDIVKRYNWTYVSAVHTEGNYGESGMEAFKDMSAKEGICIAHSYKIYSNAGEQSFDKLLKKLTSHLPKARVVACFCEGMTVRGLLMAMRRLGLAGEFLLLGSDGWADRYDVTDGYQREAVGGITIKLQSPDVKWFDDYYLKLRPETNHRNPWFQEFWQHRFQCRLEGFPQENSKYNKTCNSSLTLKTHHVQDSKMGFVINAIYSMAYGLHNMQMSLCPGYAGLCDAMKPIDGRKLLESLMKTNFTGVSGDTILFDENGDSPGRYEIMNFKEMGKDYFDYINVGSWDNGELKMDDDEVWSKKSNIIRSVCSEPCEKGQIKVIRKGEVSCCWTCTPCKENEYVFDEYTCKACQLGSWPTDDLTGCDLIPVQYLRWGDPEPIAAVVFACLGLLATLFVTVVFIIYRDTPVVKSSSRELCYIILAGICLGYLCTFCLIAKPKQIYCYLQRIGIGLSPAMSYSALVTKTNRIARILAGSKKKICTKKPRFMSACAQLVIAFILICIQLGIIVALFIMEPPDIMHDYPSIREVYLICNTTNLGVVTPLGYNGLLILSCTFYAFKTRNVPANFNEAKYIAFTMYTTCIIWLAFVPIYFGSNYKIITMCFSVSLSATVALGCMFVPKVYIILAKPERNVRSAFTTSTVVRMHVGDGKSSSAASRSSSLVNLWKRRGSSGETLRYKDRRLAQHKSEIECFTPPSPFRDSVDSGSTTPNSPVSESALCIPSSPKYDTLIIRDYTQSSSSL

Structure (SMILES) | IC50
Cc1cccc(-n2nnc([C@@H](C)Oc3nnc(-c4ncccn4)n3C)n2)c1 [Example 10.1, 2-(4-methyl-5-{(1R)-1-[2-(3-methylphenyl)-2H-tetrazol-5-yl]ethoxy}-4H-1,2,4-triazol-3-yl)pyrimidine] | 36 nM
Cc1cccc(-n2nnc([C@@H](C)Oc3nnc(-c4cncnc4)n3C)n2)c1 [Example 10.2, 5-(4-methyl-5-{(1R)-1-[2-(3-methylphenyl)-2H-tetrazol-5-yl]ethoxy}-4H-1,2,4-triazol-3-yl)pyrimidine] | 25 nM
Cc1cccc(-n2nnc([C@@H](C)Oc3nnc(-c4cnc(C)cn4)n3C)n2)c1 [Example 10.3, 2-methyl-5-(4-methyl-5-{(1R)-1-[2-(3-methylphenyl)-2H-tetrazol-5-yl]ethoxy}-4H-1,2,4-triazol-3-yl)pyrazine] | 22 nM
Cc1cccc(-n2nnc([C@@H](C)Oc3nnc(-c4ccnc(C)c4)n3C)n2)c1 [Example 10.4, 2-methyl-4-(4-methyl-5-{(1R)-1-[2-(3-methylphenyl)-2H-tetrazol-5-yl]ethoxy}-4H-1,2,4-triazol-3-yl)pyridine] | 20 nM
Cc1cccc(-n2nnc([C@@H](C)Oc3nnc(-c4cccnc4)n3C)n2)c1 [Example 10.5] | 23 nM
